Data reported in US8933230B2, “Phosphorus-containing group-substituted quinoline, its preparation process, medical composition containing the compounds and application” (priority 2011, dated 2015).

Assays:
Test in all cases: KinomeScan kinase panel
Format in all cases: binding
CAMK2A = target: T1, CAMK2A (Homo sapiens, UniProt Q9UQM7)
T1 construct: purchased DiscoveRx Corporation (KinomeScan)
Method in brief: (§1)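 Broad-panel profiling: KinomeScan, 442 wild-type and mutant kinases, each exposed to compound at 1000 nM.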

EGFR(G719S) = target: T2, EGFR(G719S) (Homo sapiens, UniProt P00533, G719S)
T2 construct: purchased DiscoveRx Corporation (KinomeScan)
Method in brief: as §1

MLK3 = target: T3, MLK3 (Homo sapiens, UniProt Q16584)
T3 construct: purchased DiscoveRx Corporation (KinomeScan)
Method in brief: as §1

CAMK2B = target: T4, CAMK2B (Homo sapiens, UniProt Q13554)
T4 construct: purchased DiscoveRx Corporation (KinomeScan)
Method in brief: as §1

[1] = target: T5, ABL1(T315I)-phosphorylated (Homo sapiens, UniProt P00519, T315I)
T5 construct: purchased DiscoveRx Corporation (KinomeScan)
Method in brief: as §1

STK33 = target: T6, STK33 (Homo sapiens, UniProt Q9BYT3)
T6 construct: purchased DiscoveRx Corporation (KinomeScan)
Method in brief: as §1

PRKCD = target: T7, PRKCD (Homo sapiens, UniProt Q05655)
T7 construct: purchased DiscoveRx Corporation (KinomeScan)
Method in brief: as §1

MAP4K2 = target: T8, MAP4K2 (Homo sapiens, UniProt Q12851)
T8 construct: purchased DiscoveRx Corporation (KinomeScan)
Method in brief: as §1

TTK = target: T9, TTK (Homo sapiens, UniProt P33981)
T9 construct: purchased DiscoveRx Corporation (KinomeScan)
Method in brief: as §1

BRK = target: T10, BRK (Homo sapiens, UniProt Q13882)
T10 construct: purchased DiscoveRx Corporation (KinomeScan)
Method in brief: as §1

PKMYT1 = target: T11, PKMYT1 (Homo sapiens, UniProt Q99640)
T11 construct: purchased DiscoveRx Corporation (KinomeScan)
Method in brief: as §1

EPHA8 = target: T12, EPHA8 (Homo sapiens, UniProt P29322)
T12 construct: purchased DiscoveRx Corporation (KinomeScan)
Method in brief: as §1

ITK = target: T13, ITK (Homo sapiens, UniProt Q08881)
T13 construct: purchased DiscoveRx Corporation (KinomeScan)
Method in brief: as §1

RIOK3 = target: T14, RIOK3 (Homo sapiens, UniProt O14730)
T14 construct: purchased DiscoveRx Corporation
Method in brief: as §1

MYLK2 = target: T15, MYLK2 (Homo sapiens, UniProt Q9H1R3)
T15 construct: purchased DiscoveRx Corporation (KinomeScan)
Method in brief: as §1

PLK3 = target: T16, PLK3 (Homo sapiens, UniProt Q9H4B4)
T16 construct: purchased DiscoveRx Corporation (KinomeScan)
Method in brief: as §1

LATS2 = target: T17, LATS2 (Homo sapiens, UniProt Q9NRM7)
T17 construct: purchased DiscoveRx Corporation (KinomeScan)
Method in brief: as §1

PIP5K1A = target: T18, PIP5K1A (Homo sapiens, UniProt Q99755)
T18 construct: purchased DiscoveRx Corporation (KinomeScan)
Method in brief: as §1

EPHA3 = target: T19, EPHA3 (Homo sapiens, UniProt P29320)
T19 construct: purchased DiscoveRx Corporation (KinomeScan)
Method in brief: as §1

ADCK4 = target: T20, ADCK4 (Homo sapiens, UniProt Q96D53)
T20 construct: purchased DiscoveRx Corporation (KinomeScan)
Method in brief: as §1

TEC = target: T21, TEC (Homo sapiens, UniProt P42680)
T21 construct: purchased DiscoveRx Corporation (KinomeScan)
Method in brief: as §1

CDK5 = target: T22, CDK5 (Homo sapiens, UniProt Q00535)
T22 construct: purchased DiscoveRx Corporation (KinomeScan)
Method in brief: as §1

PDGFRA = target: T23, PDGFRA (Homo sapiens, UniProt P16234)
T23 construct: purchased DiscoveRx Corporation (KinomeScan panel)
Method in brief: as §1

MLK1 = target: T24, MLK1 (Homo sapiens, UniProt P80192)
T24 construct: purchased DiscoveRx Corporation (KinomeScan)
Method in brief: as §1

DCAMKL3 = target: T25, DCAMKL3 (Homo sapiens, UniProt Q9C098)
T25 construct: purchased DiscoveRx Corporation (KinomeScan)
Method in brief: as §1

DAPK3 = target: T26, DAPK3 (Homo sapiens, UniProt O43293)
T26 construct: purchased DiscoveRx Corporation (KinomeScan)
Method in brief: as §1

FES = target: T27, FES (Homo sapiens, UniProt P07332)
T27 construct: purchased DiscoveRx Corporation (KinomeScan)
Method in brief: as §1

[2] = target: T28, ABL1(Q252H)-nonphosphorylated (Homo sapiens, UniProt P00519, Q252H)
T28 construct: purchased DiscoveRx Corporation (KinomeScan)
Method in brief: as §1

EGFR = target: T29, EGFR (Homo sapiens, UniProt P00533)
T29 construct: purchased DiscoveRx Corporation (KinomeScan)
Method in brief: as §1

RET (V804L) = target: T30, RET (V804L) (Homo sapiens, UniProt P07949, V804L)
T30 construct: purchased DiscoveRx Corporation
Method in brief: as §1

TRAK = target: T31, TRAK (Homo sapiens, UniProt P04629)
T31 construct: purchased DiscoveRx Corporation (KinomeScan)
Method in brief: as §1

EPHA5 = target: T32, EPHA5 (Homo sapiens, UniProt P54756)
T32 construct: purchased DiscoveRx Corporation (KinomeScan)
Method in brief: as §1

[3] = target: T33, ABL1(H396P)-phosphorylated (Homo sapiens, UniProt P00519, H396P)
T33 construct: purchased DiscoveRx Corporation (KinomeScan)
Method in brief: as §1

STK39 = target: T34, STK39 (Homo sapiens, UniProt Q9UEW8)
T34 construct: purchased DiscoveRx Corporation (KinomeScan)
Method in brief: as §1

ERK8 = target: T35, ERK8 (Homo sapiens, UniProt Q8TD08)
T35 construct: purchased DiscoveRx Corporation (KinomeScan)
Method in brief: as §1

PRKG1 = target: T36, PRKG1 (Homo sapiens, UniProt Q13976)
T36 construct: purchased DiscoveRx Corporation (KinomeScan)
Method in brief: as §1

T7 sequence (Q05655 whole entry): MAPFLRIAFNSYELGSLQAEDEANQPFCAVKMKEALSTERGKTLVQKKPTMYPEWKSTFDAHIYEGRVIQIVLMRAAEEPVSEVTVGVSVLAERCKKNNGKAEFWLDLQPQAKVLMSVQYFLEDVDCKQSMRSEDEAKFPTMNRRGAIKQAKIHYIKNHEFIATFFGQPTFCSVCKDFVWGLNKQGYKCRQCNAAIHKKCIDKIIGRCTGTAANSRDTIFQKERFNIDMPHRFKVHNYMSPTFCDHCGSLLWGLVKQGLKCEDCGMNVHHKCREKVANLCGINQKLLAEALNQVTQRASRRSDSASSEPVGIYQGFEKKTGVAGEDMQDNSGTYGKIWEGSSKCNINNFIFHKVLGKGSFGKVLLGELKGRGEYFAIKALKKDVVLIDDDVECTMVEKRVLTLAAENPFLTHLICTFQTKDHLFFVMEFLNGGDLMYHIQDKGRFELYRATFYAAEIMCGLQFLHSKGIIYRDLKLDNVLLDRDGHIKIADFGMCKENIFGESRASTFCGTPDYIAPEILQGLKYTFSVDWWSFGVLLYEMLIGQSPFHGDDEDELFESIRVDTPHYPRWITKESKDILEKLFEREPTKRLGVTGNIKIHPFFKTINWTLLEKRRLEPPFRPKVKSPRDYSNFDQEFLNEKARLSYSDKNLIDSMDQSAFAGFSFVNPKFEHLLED
T24 sequence (P80192 whole entry): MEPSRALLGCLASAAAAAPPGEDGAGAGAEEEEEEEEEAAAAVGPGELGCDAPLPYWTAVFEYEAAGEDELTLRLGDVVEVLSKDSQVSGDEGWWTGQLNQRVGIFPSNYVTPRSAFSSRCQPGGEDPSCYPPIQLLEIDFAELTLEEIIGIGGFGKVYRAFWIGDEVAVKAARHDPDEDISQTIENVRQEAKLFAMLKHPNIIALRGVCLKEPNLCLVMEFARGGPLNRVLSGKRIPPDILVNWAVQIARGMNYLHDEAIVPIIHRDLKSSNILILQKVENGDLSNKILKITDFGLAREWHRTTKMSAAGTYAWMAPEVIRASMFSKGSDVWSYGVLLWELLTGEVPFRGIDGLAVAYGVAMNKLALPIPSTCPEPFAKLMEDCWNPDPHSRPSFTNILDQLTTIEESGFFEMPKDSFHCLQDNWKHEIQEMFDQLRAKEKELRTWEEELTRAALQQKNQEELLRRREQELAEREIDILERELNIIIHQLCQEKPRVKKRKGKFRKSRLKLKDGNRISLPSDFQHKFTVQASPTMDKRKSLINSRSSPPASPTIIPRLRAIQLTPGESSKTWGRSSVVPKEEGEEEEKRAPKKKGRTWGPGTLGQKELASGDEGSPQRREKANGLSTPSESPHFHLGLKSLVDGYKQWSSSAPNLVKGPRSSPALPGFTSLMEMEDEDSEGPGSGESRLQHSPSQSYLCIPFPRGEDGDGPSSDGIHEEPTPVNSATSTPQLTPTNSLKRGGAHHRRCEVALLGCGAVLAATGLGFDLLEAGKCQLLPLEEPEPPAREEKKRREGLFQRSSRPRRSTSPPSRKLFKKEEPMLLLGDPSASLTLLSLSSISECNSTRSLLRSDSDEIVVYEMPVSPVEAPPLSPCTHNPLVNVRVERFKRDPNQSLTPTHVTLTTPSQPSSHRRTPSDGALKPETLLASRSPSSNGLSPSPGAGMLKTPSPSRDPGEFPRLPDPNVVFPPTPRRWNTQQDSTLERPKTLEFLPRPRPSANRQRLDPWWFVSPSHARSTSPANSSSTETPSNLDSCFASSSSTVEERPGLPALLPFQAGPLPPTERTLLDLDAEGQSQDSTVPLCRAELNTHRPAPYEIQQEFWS
T21 sequence (P42680 whole entry): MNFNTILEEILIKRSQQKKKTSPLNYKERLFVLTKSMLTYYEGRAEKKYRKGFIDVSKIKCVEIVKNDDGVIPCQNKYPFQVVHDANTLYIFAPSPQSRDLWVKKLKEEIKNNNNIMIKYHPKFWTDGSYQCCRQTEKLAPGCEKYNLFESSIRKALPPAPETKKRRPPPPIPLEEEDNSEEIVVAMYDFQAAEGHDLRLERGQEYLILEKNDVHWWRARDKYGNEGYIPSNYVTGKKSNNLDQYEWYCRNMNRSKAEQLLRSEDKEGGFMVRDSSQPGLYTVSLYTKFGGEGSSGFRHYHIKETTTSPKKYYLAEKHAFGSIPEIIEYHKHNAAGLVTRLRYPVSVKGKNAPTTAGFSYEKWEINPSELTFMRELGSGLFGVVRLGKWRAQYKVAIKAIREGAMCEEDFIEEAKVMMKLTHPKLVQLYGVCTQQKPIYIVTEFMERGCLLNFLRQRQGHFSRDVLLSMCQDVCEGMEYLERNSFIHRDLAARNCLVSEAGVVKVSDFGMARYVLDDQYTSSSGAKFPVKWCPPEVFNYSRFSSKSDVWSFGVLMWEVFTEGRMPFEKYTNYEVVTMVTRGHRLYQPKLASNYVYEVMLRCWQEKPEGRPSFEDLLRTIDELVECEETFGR
T36 sequence (Q13976 whole entry): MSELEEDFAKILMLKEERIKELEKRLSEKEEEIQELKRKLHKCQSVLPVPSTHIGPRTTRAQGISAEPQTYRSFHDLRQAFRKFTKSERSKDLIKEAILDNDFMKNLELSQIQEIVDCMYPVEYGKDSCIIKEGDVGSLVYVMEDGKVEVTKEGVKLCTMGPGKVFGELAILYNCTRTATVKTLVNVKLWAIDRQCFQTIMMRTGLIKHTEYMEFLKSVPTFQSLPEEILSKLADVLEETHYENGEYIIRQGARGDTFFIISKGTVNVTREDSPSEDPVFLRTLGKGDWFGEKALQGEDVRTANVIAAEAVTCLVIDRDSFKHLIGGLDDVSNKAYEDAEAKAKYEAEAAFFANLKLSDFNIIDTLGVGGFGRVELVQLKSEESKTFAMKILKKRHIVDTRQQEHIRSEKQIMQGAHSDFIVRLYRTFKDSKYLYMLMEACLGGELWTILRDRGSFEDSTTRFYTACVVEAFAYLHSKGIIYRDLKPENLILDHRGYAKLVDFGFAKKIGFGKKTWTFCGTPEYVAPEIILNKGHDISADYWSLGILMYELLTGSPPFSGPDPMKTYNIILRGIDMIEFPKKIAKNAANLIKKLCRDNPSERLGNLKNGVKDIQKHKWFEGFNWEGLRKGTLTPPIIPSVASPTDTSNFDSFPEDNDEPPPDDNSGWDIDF
T16 sequence (Q9H4B4 whole entry): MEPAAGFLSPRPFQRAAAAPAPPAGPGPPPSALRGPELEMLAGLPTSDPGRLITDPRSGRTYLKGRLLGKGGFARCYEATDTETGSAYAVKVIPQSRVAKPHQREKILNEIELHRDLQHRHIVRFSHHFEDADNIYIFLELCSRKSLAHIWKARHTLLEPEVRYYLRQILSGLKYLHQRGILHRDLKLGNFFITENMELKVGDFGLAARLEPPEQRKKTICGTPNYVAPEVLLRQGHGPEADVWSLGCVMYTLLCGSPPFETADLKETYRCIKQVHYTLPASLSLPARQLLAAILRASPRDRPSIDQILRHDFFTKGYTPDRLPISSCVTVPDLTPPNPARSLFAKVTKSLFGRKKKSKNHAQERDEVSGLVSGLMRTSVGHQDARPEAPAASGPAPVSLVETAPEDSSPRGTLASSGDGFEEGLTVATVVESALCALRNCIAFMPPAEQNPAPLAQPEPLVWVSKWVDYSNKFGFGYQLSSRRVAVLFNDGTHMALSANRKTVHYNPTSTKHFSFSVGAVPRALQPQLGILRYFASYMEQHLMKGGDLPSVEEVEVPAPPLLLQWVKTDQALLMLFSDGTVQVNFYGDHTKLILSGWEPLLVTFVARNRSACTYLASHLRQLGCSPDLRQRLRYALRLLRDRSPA
T14 sequence (O14730 whole entry): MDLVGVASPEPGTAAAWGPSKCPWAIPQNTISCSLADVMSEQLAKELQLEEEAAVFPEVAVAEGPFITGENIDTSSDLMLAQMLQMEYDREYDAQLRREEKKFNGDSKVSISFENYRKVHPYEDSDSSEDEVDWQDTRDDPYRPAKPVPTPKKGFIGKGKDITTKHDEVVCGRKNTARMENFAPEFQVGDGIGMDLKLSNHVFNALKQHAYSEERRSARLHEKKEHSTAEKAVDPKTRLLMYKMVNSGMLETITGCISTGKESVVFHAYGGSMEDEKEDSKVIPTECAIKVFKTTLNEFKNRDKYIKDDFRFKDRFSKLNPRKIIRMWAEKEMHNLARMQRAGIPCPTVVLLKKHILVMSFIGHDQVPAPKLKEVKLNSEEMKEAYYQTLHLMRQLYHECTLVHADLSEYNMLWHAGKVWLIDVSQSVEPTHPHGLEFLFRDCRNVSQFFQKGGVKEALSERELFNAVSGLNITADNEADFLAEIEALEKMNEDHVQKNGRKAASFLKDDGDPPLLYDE
T27 sequence (P07332 whole entry): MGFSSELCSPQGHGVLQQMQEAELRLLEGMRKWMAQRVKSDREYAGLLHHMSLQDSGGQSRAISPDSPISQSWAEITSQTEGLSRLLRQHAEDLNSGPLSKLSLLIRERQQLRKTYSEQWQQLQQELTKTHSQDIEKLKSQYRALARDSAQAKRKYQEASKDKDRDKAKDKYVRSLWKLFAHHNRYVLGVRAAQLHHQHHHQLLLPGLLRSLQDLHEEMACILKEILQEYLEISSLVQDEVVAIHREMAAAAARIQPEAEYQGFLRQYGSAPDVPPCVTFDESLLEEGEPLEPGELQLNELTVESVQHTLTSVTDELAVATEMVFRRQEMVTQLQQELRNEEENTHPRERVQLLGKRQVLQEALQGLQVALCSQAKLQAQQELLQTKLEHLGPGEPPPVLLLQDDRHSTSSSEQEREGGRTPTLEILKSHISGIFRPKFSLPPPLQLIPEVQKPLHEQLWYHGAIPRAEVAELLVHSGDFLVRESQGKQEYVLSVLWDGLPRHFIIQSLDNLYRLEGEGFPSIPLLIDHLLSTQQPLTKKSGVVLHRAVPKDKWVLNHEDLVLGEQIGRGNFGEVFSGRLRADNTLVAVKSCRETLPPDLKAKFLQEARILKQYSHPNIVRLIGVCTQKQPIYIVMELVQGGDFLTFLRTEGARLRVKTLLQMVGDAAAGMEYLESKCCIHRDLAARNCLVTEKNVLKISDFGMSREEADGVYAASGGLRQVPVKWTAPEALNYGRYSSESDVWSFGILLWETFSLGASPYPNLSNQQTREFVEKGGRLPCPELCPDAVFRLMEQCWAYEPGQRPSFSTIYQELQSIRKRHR

SMILES: CCOP(=O)(CN1CCC(COc2cc3nccc(Oc4ccc(NC(=O)C5(C(=O)Nc6ccc(F)cc6)CC5)cc4F)c3cc2OC)CC1)OCC [Example 10, N1-[4-[[7-[[1-(diethoxyphosphorylmethyl)-4-piperidinyl]methoxyl]-6-methoxyl-4-quinolyl]oxyl]-3-fluorophenyl]-N1′-(4-fluorophenyl)cyclopropane-1,1-dicarboxamide]
- % Ctrl@1000 nM (CAMK2A): 100 % Ctrl
- % Ctrl@1000 nM (EGFR(G719S)): 81 % Ctrl
- % Ctrl@1000 nM (MLK3): 63 % Ctrl
- % Ctrl@1000 nM (CAMK2B): 100 % Ctrl
- % Ctrl@1000 nM [1]: 75 % Ctrl
- % Ctrl@1000 nM (STK33): 46 % Ctrl
- % Ctrl@1000 nM (PRKCD): 100 % Ctrl
- % Ctrl@1000 nM (MAP4K2): 100 % Ctrl
- % Ctrl@1000 nM (TTK): 84 % Ctrl
- % Ctrl@1000 nM (BRK): 3.0 % Ctrl
- % Ctrl@1000 nM (PKMYT1): 100 % Ctrl
- % Ctrl@1000 nM (EPHA8): 0.15 % Ctrl
- % Ctrl@1000 nM (ITK): 34 % Ctrl
- % Ctrl@1000 nM (RIOK3): 100 % Ctrl
- % Ctrl@1000 nM (MYLK2): 100 % Ctrl
- % Ctrl@1000 nM (PLK3): 100 % Ctrl
- % Ctrl@1000 nM (LATS2): 96 % Ctrl
- % Ctrl@1000 nM (PIP5K1A): 100 % Ctrl
- % Ctrl@1000 nM (EPHA3): 6 % Ctrl
- % Ctrl@1000 nM (ADCK4): 100 % Ctrl
- % Ctrl@1000 nM (TEC): 100 % Ctrl
- % Ctrl@1000 nM (CDK5): 100 % Ctrl
- % Ctrl@1000 nM (PDGFRA): 1.8 % Ctrl
- % Ctrl@1000 nM (MLK1): 83 % Ctrl
- % Ctrl@1000 nM (DCAMKL3): 100 % Ctrl
- % Ctrl@1000 nM (DAPK3): 100 % Ctrl
- % Ctrl@1000 nM (FES): 44 % Ctrl
- % Ctrl@1000 nM [2]: 2.4 % Ctrl
- % Ctrl@1000 nM (EGFR): 100 % Ctrl
- % Ctrl@1000 nM (RET (V804L)): 0.35 % Ctrl
- % Ctrl@1000 nM (TRAK): 1.8 % Ctrl
- % Ctrl@1000 nM (EPHA5): 3.5 % Ctrl
- % Ctrl@1000 nM [3]: 63 % Ctrl
- % Ctrl@1000 nM (STK39): 100 % Ctrl
- % Ctrl@1000 nM (ERK8): 95 % Ctrl
- % Ctrl@1000 nM (PRKG1): 100 % Ctrl
